Data from patent US8535931B2, “Non-photosynthetic micro-organisms enriched with organic selenium from seleno-hydroxyacid compounds and applications thereof in the field of nutrition, cosmetics and pharmacueuticals” (priority 2008, dated 2013).
Where two headings read alike, the source gives them in different places.

What was measured:
[1] = supplementation of the diet; cited from earlier work
[2] = tested on: Lactobacillus paracasei 3052-E000; assay type: cell-based; conditions: for inhibitor effect on the growth or reduction in the biomass production yield: up to 20 mg/L (in selenium equivalent); for reduction in the biomass production yield: 48 h
Description: In this experiment, the growth characteristics of the bacterium Lactobacillus paracasei were measured in the presence of different concentrations of selenium in the form of sodium selenite, selenomethionine, 2-hydroxy-4-methylseleno-butanoic acid and compared with the growth characteristics in the absence of additives.
The pre-culture of the strain Lactobacillus paracasei 3052-E000 is carried out in liquid MRS medium, at 42° C., without agitation for 24 h. The culture of the strain Lactobacillus paracasei 3052-E000 was carried out from an inoculum (1.10^7 UFC/ml) of the above pre-culture in 100 mL of MRS medium, at pH=6.4 and at a temperature of 42° C. (without agitation).
The cultures were monitored by absorbance measurements at 550 nm and CFU counting carried out on MRS plate.
The concentrations tested for the addition of selenium selenite are 0.5 mg/L, 2 mg/L, 10 mg/L and 20 mg/L in selenium equivalent, i.e. respectively 1.11 mg/L, 4.44 mg/L, 22.22 mg/L and 44.44 mg/L of sodium selenite. The graph of FIG. 4 makes it possible to visualise the growth of the strain Lactobacillus paracasei 3052-E000 in the presence of sodium selenite.
The concentrations tested for the addition of selenomethionine are 0.5 mg/L, 2 mg/L, 10 mg/L and 20 mg/L in selenium equivalent, i.e. respectively 1.25 mg/L, 5 mg/L, 25 mg/L and 50 mg/L of selenomethionine.
(§1) The concentrations tested for the addition of 2-hydroxy-4-methylseleno-butanoic acid are 0.5 mg/L, 2 mg/L, 10 mg/L and 20 mg/L in selenium equivalent, i.e. respectively 1.25 mg/L, 5 mg/L, 25 mg/L and 50 mg/L of 2-hydroxy-4-methylseleno-butanoic acid (THD-177, Tetrahedron, France, CAS: 873660-49-2).
In order to complete the study of the impact of the addition of 2-hydroxy-4-methylseleno-butanoic acid, at higher values, concentrations of 40 and 60 mg/L were tested under the same conditions as previously.

[3] = tested on: Saccharomyces cerevisiae 3053-E000; assay type: cell-based; conditions: for yield of biomass obtained (change): 48 h; for concentration from which an effect on growth / biomass yield begins to show: YPG medium, pH 4, 37° C.
Description: In the experiments described, the growth characteristics of the yeast Saccharomyces cerevisiae 3053 E000 were measured in the presence of different concentrations of selenium in the form of sodium selenite, selenomethionine, or 2-hydroxy-4-methylseleno-butanoic acid and compared to the growth characteristics in the absence of additives (control). The pre-culture of the strain Saccharomyces cerevisiae 3053-E000 is carried out in liquid YPG medium, at 37° C., under orbital agitation (250 rpm) for 24 h.
The culture is formed from an inoculum (1.10^6 UFC/ml) of the pre-culture described previously in 100 mL of YPG medium, at pH=4 at a temperature of 37° C. under agitation (250 rpm) and according to the following conditions:
The cultures of Saccharomyces cerevisiae 3053-E000 were monitored by absorbance measurements at 550 nm and by CPU counting on YPG gelose plates.
The concentrations tested for the addition of selenium selenite are 0.5 mg/L, 10 mg/L and 20 mg/L in selenium equivalent, i.e. respectively: 1.1 mg/L, 22.22 mg/L and 44.44 mg/L of sodium selenite.
The concentrations tested for the addition of selenomethionine are 0.5 mg/L, 2 mg/L, 10 mg/L and 20 mg/L in selenium equivalent, i.e. respectively 1.25 mg/L, 5 mg/L, 25 mg/L and 50 mg/L of selenomethionine
as §1

[4] = 10 mg/L (in selenium equivalent)
[5] = 20 mg/L (in selenium equivalent)
[6] = 10 and 20 mg/L (in selenium equivalent)

## C[Se]CC[C@H](N)C(=O)O [L(+)-selenomethionine]
[1]
  toxicity compared with an intake in the form of sodium selenite: much less toxic

## C[Se]CCC(O)C(=O)O (stereo not shown) [THD 177, 2-hydroxy-4-methylseleno-butanoic acid]
[2]; 40 and 60 mg/L
  inhibitor effect on the growth and the biomass yield: no inhibitor effect was observed
[2]
  inhibitor effect on the growth or reduction in the biomass production yield: does not show an inhibitor effect
[3]; [4]
  viability reduced by: 36%
  yield of biomass obtained (change): −15%
[3]; [5]
  biomass yield reduced by: 36%
  viability reduced by: 50%
[3]
  concentration from which an effect on growth / biomass yield begins to show: 10 mg/L (in selenium equivalent)

## C[Se]CC[C@H](N)C(=O)O [selenomethionine]
[2]
  inhibitor effect on the growth or reduction in the biomass production yield: does not show an inhibitor effect
[3]; 2 mg/L (in selenium equivalent)
  yield of biomass obtained (change): −29%
[3]; [4]
  yield of biomass obtained (change): −50%
[3]
  concentration from which an effect on growth / biomass yield begins to show: 2 mg/L (in selenium equivalent)

## O=[Se](O)O [sodium selenite]
[2]; 0.5 mg/L (in selenium equivalent)
  reduction in the biomass production yield: 25%
[2]; [6]
  toxicity on Lactobacillus paracasei: shows a toxicity
  reduction in the biomass production yield: 90%
[2]; MRS medium, pH 6.4, 42° C.
  concentration from which an inhibitor effect on growth begins to show: 0.5 mg/L (in selenium equivalent)
[3]; [4]
  yield of biomass obtained (change): −50%
[3]; [5]
  toxicity for Saccharomyces cerevisiae: very toxic
[3]
  concentration from which an effect on growth / biomass yield begins to show: 10 mg/L (in selenium equivalent)
